Results from patent US5688787A, “Substituted β-lactam compounds useful as hypochlesterolemic agents and processes for the preparation thereof” (priority 1996, dated 1997).
Like-named read-outs stand apart in the source and are kept apart here.

System: Hyperlipidemic Hamster
Assay: In Vivo Assay of Hypolipidemic Agents Using the Hyperlipidemic Hamster
Details: for change in vivo at 50 mg/kg / change in vivo at 5 mg/kg / change in vivo at 10 mg/kg / change in vivo at 25 mg/kg / change in vivo at 30 mg/kg: Mesocricetus auratus, po, 168 h; for change in vivo at 5 mg/kg: 5 mg/kg once daily oral; for change in vivo at 10 mg/kg: 10 mg/kg once daily oral; for change in vivo at 25 mg/kg: 25 mg/kg once daily oral; for change in vivo at 30 mg/kg: 30 mg/kg once daily oral
Description: In Vivo Assay of Hypolipidemic Agents Using the Hyperlipidemic Hamster
Hamsters are separated into groups of six and given a controlled cholesterol diet (Purina Chow #5001 containing 0.5% cholesterol) for seven days. Diet consumption is monitored to determine dietary cholesterol exposure in the face of test compounds. The animals are dosed with the test compound once daily beginning with the initiation of diet. Dosing is by oral gavage of 0.2mL of corn oil alone (control group) or solution (or suspension) of test compound in corn oil. All animals roodbund or in poor physical condition are euthanized. After seven days, the animals are anesthetized by IM injection of ketamine and sacrificed by decapitation. Blood is collected into vacutainer tubes containing EDTA for plasma lipid analysis and the liver excised for tissue lipid analysis. Data is reported as percent reduction of lipid versus control.
Using the test procedures described above, the following in vitro and in vivo data were obtained for the preferred compounds, which are referred to in the following table by the corresponding example numbers. For the in vitro ACAT data, negative percent inhibition denotes apparent stimulation,while positive numbers denote inhibition. For the in vivo results, data is reported as percent change versus control, therefore, negative numbers indicate a positive lipid-lowering effect.

[1] = 50 mg/kg once daily oral, 7 days, percent change versus control, negative = lowering, read-out: % Reduction (in vivo) Cholest. Esters
[2] = 50 mg/kg once daily oral, 7 days, percent change versus control, negative = lowering, read-out: % Reduction (in vivo) Serum Cholest.
[3] = 50 mg/kg once daily oral, 7 days, percent change versus control, negative = lowering
[4] = 7 days, percent change versus control, negative = lowering, read-out: % Reduction (in vivo) Cholest. Esters
[5] = 7 days, percent change versus control, negative = lowering, read-out: % Reduction (in vivo) Serum Cholest.

Structure (SMILES)	change in vivo at 50 mg/kg [1] [%]	change in vivo at 50 mg/kg [2] [%]	also measured
CCOC(=O)c1ccc([C@@H]2[C@@H](CCCc3ccccc3)C(=O)N2c2ccc(OC)cc2)cc1 (relative stereo) [Example 24A]	-76	-21	
COc1ccc(N2C(=O)[C@H](CCCc3ccccc3)[C@@H]2c2cc(OC)c(OC)c(OC)c2)cc1 (relative stereo) [Example 1BV]	0	-11	
CCCOc1ccc([C@H]2[C@@H](CCCc3ccccc3)C(=O)N2c2ccc(OC)cc2)cc1 (relative stereo) [Example 1AZ]	-91	-37	
COc1ccc([C@@H]2[C@H](Oc3ccc4ccccc4c3)C(=O)N2c2ccc(OC)cc2)cc1 (relative stereo) [Example 7AL]	0	-13	
COc1ccc([C@@H]2[C@@H](CCCc3ccccc3)C(=O)N2c2ccc(OC)cc2)cc1 (relative stereo) [Example 5W]			% Reduction (in vivo) Cholest. Esters [3]: -19%; % Reduction (in vivo) Serum Cholest. [3]: 0%
COc1ccc([C@@H]2[C@@H](CCCc3ccccc3)C(=O)N2c2cnc3ccccc3c2)cc1 (relative stereo) [Example 7AT]	-32	-10	
COc1ccc(N2C(=O)[C@H](CCCc3ccccc3)[C@H]2c2ccc(OC)cc2OC)cc1 (relative stereo) [Example 7X]	-78	-26	
CCC(=O)N[C@@H]1C(=O)N(c2ccccc2)[C@@H]1c1ccc(OC)cc1 (relative stereo) [Example 12A]	-39	-14	
COC(=O)C=C(C)N[C@@H]1C(=O)N(c2ccccc2)[C@@H]1c1ccc(OC)cc1 (relative stereo) [Example 7J]	-27	-21	
COc1ccc(N2C(=O)C(CCCc3ccccc3)C2c2ccc(C3OCCO3)cc2)cc1 (stereo not shown) [Example 31A]			% Reduction (in vivo) Cholest. Esters [3]: 0%; % Reduction (in vivo) Serum Cholest. [3]: 0%
CCOC(=O)c1ccc(N2C(=O)[C@H](CCCc3ccccc3)[C@H]2c2ccc(OC)cc2)cc1 (relative stereo) [Example 7A]	-54	-22	
CCOC(=O)c1ccc([C@H]2[C@@H](CCCc3ccccc3)C(=O)N2c2ccc(OC)cc2)cc1 (relative stereo) [Example 24]	0	-17	
COc1ccc(C2C(CCCc3ccccc3)C(=O)N2c2ccc(OC)cc2)cc1 (stereo not shown) [Example 1]	-95	-45	change in vivo at 5 mg/kg [4]: 0%; change in vivo at 5 mg/kg [5]: 0%; change in vivo at 10 mg/kg [4]: -55%; change in vivo at 10 mg/kg [5]: -17%
COc1ccc(N2C(=O)[C@H](CCCc3ccccc3)[C@@H]2c2ccc(Oc3ccccc3)cc2)cc1 (relative stereo) [Example 1BS]	-43	0	
CCCOc1ccc([C@@H]2[C@@H](CCCc3ccccc3)C(=O)N2c2ccc(OC)cc2)cc1 (relative stereo) [Example 7P]	-95	-40	
COc1ccc(N2C(=O)[C@H](CCCc3ccccc3)[C@H]2c2ccc(N(C)C)cc2)cc1 (relative stereo) [Example 7U]	-60	-29	
COc1ccc([C@@H]2[C@@H](CCCc3ccc(N)cc3)C(=O)N2c2ccc(OC)cc2)cc1 (relative stereo) [Example 8E]	-32	0	
COc1ccc([C@H]2[C@@H](CCCc3ccccc3)C(=O)N2c2ccc(Cl)cc2)cc1 (relative stereo) [Example 1AO]	-78	-33	
COC(=O)CCC(=O)Oc1ccc(C2C(CCCc3ccccc3)C(=O)N2c2ccc(OC)cc2)cc1 (stereo not shown) [Example 34]	-94	-39	

Structure (SMILES)	change in vivo at 50 mg/kg [1] [%]	change in vivo at 50 mg/kg [2] [%]	also measured
C=CCOc1ccc([C@@H]2[C@@H](CCCc3ccccc3)C(=O)N2c2ccc(OC)cc2)cc1 (relative stereo) [Example 5U]	-86	-48	
COc1ccc([C@@H]2[C@@H](CCCCCc3ccccc3)C(=O)N2c2ccc(OC)cc2)cc1 (relative stereo) [Example 7AM]	-70	-24	
COc1ccc([C@H]2[C@@H](CCCc3ccccc3)C(=O)N2c2ccc(OC)cc2)cc1 [Example 2A]	0	0	
COc1ccc([C@@H]2[C@H](NS(=O)(=O)c3ccc(C)cc3)C(=O)N2c2ccccc2)cc1 (relative stereo) [Example 13]	0	-18	
COc1ccc(N2C(=O)[C@H](CCCc3ccccc3)[C@@H]2c2cn(C)c3ccccc23)cc1 (relative stereo) [Example 1BW]	-29	-9	
COCc1ccc([C@H]2[C@@H](CCCc3ccccc3)C(=O)N2c2ccc(OC)cc2)cc1 (relative stereo) [Example 21A]	-25	0	
COc1ccc(N2C(=O)[C@@H](CCCc3ccccc3)[C@@H]2c2ccc(NS(C)(=O)=O)cc2)cc1 (relative stereo) [Example 25C]	-46	-8	
COc1ccc([C@@H]2[C@H](CCCc3ccccc3)C(=O)N2c2ccc(OC)cc2)cc1 [Example 2]			change in vivo at 5 mg/kg [4]: -37%; change in vivo at 5 mg/kg [5]: -15%; change in vivo at 10 mg/kg [4]: -69%; change in vivo at 10 mg/kg [5]: -28%
COc1ccc(C(=O)[C@@H]2[C@H](CCCc3ccccc3)C(=O)N2c2ccc(OC)cc2)cc1 (relative stereo) [Example 7W]	0	12	
COc1ccc(N2C(=O)[C@@H](CCCc3ccccc3)[C@H]2c2ncc[nH]2)cc1 (relative stereo) [Example 18]	0	0	
COc1ccc([C@@H]2[C@@H](CCCc3ccccc3)C(=O)N2c2ccccc2)cn1 (relative stereo) [Example 7O]	-20	-14	
COc1ccc([C@@H]2[C@@H](CCCc3ccccc3)C(=O)N2c2ccc(OC)cc2)cc1 (relative stereo) [Example 5]			% Reduction (in vivo) Cholest. Esters [3]: -77.5%; % Reduction (in vivo) Serum Cholest. [3]: -29%; change in vivo at 10 mg/kg [4]: -60%; change in vivo at 10 mg/kg [5]: -21%; change in vivo at 25 mg/kg [4]: -72%; change in vivo at 25 mg/kg [5]: -20%
COc1ccc(N2C(=O)[C@H](CCCc3ccccc3)[C@@H]2c2ccc(C(=O)N3CCOCC3)cc2)cc1 (relative stereo) [Example 23]	-40	-22	
COc1ccc([C@@H]2[C@@H](CCCC3CCCCC3)C(=O)N2c2ccc(OC)cc2)cc1 (relative stereo) [Example 7AK]	-28	12	
CCN(CC)c1ccc(N2C(=O)[C@H](CCCc3ccccc3)[C@H]2c2ccc(OC)cc2)cc1 (relative stereo) [Example 7C]	-95	-51	
COc1ccc([C@@H]2[C@@H](CCCc3ccccc3)C(=O)N2c2ccc(F)cc2)cc1 (relative stereo) [Example 5D]	-95	-38	change in vivo at 10 mg/kg [4]: -77%; change in vivo at 10 mg/kg [5]: -24%; change in vivo at 30 mg/kg [4]: -94%; change in vivo at 30 mg/kg [5]: -41%
COc1ccc([C@H]2[C@@H](CCCc3ccccc3)C(=O)N2c2ccc(O[Si](C)(C)C(C)(C)C)cc2)cc1 (relative stereo) [Example 1CB]			change in vivo at 50 mg/kg (read-out: % Reduction (in vivo) Cholest. Esters): 0%; change in vivo at 50 mg/kg (read-out: % Reduction (in vivo) Serum Cholest.): 0%
COc1ccc(N2C(=O)[C@H](CCCc3ccccc3)[C@H]2c2ccc(OC(C)C)cc2)cc1 (relative stereo) [Example 7M]	-94	-38	
